Measurements: ChEMBL document CHEMBL1221170, “Sensing with TRP channels” (Nat Chem Biol, 2005)

Key:
Format in all cases: functional
[1] = target: Transient receptor potential cation channel subfamily A member 1 (Homo sapiens) (UniProt O75762); assay: Agonist activity at TRPA1
[2] = target: Transient receptor potential cation channel subfamily M member 8 (Homo sapiens) (UniProt Q7Z2W7); assay: Agonist activity at TRPM8
[3] = target: Transient receptor potential cation channel subfamily V member 4 (Homo sapiens) (UniProt Q9HBA0); assay: Agonist activity at TRPV4
Chain of Transient receptor potential cation channel subfamily V member 4 (Homo sapiens) (Q9HBA0 whole entry): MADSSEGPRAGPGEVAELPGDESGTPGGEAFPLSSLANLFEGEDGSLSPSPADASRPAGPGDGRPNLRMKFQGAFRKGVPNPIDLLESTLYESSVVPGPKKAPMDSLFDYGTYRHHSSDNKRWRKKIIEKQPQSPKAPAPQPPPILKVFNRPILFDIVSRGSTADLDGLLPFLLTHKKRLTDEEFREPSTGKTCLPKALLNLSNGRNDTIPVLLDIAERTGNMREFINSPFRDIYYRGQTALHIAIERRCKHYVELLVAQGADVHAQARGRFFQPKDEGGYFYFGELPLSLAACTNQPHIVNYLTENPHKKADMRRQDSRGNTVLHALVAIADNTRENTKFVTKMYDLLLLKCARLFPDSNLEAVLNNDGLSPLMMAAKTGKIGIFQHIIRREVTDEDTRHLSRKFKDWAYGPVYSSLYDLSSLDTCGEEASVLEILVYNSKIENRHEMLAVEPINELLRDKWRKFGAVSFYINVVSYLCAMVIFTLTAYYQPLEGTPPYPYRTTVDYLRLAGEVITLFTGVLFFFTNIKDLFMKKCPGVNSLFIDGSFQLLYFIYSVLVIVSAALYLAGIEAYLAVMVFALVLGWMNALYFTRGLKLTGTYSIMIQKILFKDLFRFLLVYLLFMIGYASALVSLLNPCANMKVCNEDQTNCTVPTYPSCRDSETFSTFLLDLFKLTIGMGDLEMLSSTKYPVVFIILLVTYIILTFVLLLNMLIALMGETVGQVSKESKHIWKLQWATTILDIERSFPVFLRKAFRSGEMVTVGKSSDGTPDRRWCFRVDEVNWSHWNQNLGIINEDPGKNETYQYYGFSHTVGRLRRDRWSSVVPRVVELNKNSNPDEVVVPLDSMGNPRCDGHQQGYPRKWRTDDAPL

Chain of Transient receptor potential cation channel subfamily A member 1 (Homo sapiens) (O75762 whole entry): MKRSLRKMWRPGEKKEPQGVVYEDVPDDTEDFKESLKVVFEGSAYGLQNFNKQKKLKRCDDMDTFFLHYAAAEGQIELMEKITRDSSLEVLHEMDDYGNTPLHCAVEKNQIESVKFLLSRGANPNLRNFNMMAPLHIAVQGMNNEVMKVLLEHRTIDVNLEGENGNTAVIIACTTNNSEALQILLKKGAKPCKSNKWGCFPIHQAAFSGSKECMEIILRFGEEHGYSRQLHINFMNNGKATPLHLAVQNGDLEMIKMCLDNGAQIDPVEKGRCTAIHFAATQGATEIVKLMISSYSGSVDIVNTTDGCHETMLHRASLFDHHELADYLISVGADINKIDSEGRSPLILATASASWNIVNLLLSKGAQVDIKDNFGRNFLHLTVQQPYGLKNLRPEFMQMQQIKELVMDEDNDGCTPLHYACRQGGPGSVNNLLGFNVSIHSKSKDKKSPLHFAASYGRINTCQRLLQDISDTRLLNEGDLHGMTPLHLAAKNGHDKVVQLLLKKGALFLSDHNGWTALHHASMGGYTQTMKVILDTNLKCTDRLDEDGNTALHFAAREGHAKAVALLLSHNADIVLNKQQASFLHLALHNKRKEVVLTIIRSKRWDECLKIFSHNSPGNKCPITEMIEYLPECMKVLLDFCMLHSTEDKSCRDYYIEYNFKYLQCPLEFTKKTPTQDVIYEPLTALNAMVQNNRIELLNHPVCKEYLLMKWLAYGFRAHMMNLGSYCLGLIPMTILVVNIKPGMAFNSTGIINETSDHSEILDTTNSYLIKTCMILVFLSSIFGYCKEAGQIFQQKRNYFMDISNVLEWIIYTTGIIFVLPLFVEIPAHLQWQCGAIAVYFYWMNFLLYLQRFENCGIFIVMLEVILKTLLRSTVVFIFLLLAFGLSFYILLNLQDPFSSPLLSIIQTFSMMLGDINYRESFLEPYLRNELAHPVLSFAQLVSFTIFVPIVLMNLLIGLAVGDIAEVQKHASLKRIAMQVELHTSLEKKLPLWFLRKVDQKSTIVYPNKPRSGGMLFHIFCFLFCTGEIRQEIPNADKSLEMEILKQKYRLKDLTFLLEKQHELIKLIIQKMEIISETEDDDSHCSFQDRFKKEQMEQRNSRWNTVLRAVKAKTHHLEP
Chain of Transient receptor potential cation channel subfamily M member 8 (Homo sapiens) (Q7Z2W7 whole entry, looked up): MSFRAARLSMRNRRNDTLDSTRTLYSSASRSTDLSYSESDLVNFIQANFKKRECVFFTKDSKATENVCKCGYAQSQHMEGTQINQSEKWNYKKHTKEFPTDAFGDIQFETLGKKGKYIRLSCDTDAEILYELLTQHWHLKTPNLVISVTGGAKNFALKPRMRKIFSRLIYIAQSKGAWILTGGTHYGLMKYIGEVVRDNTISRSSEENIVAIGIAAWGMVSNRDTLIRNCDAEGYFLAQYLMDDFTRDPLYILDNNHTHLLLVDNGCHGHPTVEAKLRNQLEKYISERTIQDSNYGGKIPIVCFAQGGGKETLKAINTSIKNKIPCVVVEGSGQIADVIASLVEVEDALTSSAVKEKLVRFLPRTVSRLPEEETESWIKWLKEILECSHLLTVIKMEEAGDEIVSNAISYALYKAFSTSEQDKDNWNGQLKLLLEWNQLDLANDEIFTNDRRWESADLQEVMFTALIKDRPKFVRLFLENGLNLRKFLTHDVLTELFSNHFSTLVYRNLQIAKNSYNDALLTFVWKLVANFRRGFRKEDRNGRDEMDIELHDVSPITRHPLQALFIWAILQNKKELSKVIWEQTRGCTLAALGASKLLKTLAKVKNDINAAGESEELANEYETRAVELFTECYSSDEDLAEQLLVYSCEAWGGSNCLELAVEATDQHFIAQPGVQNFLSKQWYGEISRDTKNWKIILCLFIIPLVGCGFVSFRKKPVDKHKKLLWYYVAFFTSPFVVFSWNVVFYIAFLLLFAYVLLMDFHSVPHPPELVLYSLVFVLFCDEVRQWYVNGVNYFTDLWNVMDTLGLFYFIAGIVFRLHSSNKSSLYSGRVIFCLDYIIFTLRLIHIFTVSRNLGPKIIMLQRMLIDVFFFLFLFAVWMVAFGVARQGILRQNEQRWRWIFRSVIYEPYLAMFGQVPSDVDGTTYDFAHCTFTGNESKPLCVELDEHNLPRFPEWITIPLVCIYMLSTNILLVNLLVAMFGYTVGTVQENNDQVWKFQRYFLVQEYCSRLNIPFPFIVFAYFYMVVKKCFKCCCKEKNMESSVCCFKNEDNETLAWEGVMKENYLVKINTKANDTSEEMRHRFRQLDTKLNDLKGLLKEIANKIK

CCCCCc1cc(O)c2c(c1)OC(C)(C)[C@@H]1CCC(C)=C[C@@H]21
Activity [1]: 10 µM

O=C/C=C/c1ccccc1
Activity [1]: 10 µM

O=C1NC(c2cccc([N+](=O)[O-])c2)=CCN1c1ccccc1O
Activity [1]: 0.099 µM | Activity [2]: 0.099 µM

CCCCCCCCCC(=O)O[C@H]1[C@H](C)[C@]2(O)[C@H](C=C(CO)C[C@@]3(O)C(=O)C(C)=C[C@H]23)[C@H]2C(C)(C)[C@@]12OC(=O)CCCCCCCCC
Activity [3]: 0.099 µM

CC1CCC(C(C)C)C(O)C1 (centres undefined)
Activity [2]: 10 µM

CCCCC/C=C/C/C=C/C/C=C/CC1OC1CCCC(=O)O (centres undefined)
Activity [3]: 0.01 µM

C=CCS[S+]([O-])CC=C (centres undefined)
Activity [1]: 10 µM

CC12CCC(CC1)C(C)(C)O2
Activity [2]: 100 µM
